Laboratory results reported in patent US10676408B2, “Alkynylpyrazoles as nitrification inhibitors” (BASF SE, priority 2014, dated 2020).

Tested on: nitrification
Assay: Inhibition of nitrification in soil (48 well plate, ammonium sulfate, color reaction at 540 nm)
Assay type: cell-based
Settings: dose of 10 ppm in 1% DMSO; field soil (e.g. Limburgerhof); incubated at room temperature for up to 72 hrs; inhibition = 100 − % activity compared to control; read-out: IN (best inhibition value obtained for a compound)
Protocol: The compounds of the invention have been tested as follows in terms of the inhibition of nitrification:
Soil was sampled fresh from a field (e.g. Limburgerhof), dried and sieved through a 500 μm sieve. Approximately 200 mg of soil were placed into each well of a 48 well plate. Compounds, or DMSO alone, were added at a concentration of 10 ppm, dissolved in 1% DMSO. 6 μmol ammonium sulfate was added per well as well as 4.8 mg NaClO3.
Subsequently, the samples were incubated at room temperature for up to 72 hrs. After the incubation period 64 mg KCl were added and mixed. 25 μl of the supernatant were placed into a fresh plate and 260 μl of a color reaction solution (from Merck Nr 1.11799.0100) were added.
Measurements were taken with a Tecan plate Reader at 540 nm wavelength.
Inhibition is calculated as x=% activity compared to control, and converted to 100−x to give the value of inhibition, rather than activity.

Row | SMILES | inhibition at 10 ppm [%]
1 | C#Cc1ccnn1C [Compound 2] | 24
2 | C#Cc1cc(C#C)n(C)n1 [Compound 1] | 55
3 | C#Cc1c(C)nn(C)c1C [Compound 3] | 27
